In patent publication US20240293443A1, “HEPARAN SULFATE MIMETICS TO IMPROVE GLUCOSE CLEARANCE” (The Regents of the University of California, priority 2021, published 2024):
“Also recorded” adds a separate entry of the source.

Tests used:
WT adipocytes [1] = experiment: 3[H]-2-deoxy-glucose uptake in WT MEF-derived adipocytes; assay type: cell-based, mouse; conditions: for glucose clearance in differentiated adipocytes: WT, Wnt inhibitor treatment during the first 3 days of adipogenesis
Experimental: Cells were seeded on a 24-well plate at a density of 30,000 cells/cm^2. Cells were allowed to grow to confluence for 48 hours. At this point (Day 0), the media were removed, cells were washed with PBS, and differentiation media with or without heparin (100 μg/ml) were added. […] On Day 3 of differentiation, cells were washed with PBS and treated with insulin media, which consisted of 2 μM insulin, and 1 μM rosiglitazone in DMEM with 10% FBS. The cellular cholesterol and triglyceride content was determined after lysing cells in 0.1M NaOH. Total plasma cholesterol and plasma triglyceride levels (Sekisui Diagnostics) and protein levels (BCA protein assay) were determined using commercially available kits.
Cells are washed twice with PBS and placed into DMEM with 2 mg/mL BSA for two hours. […] The insulin solution is then removed and the cells are washed twice with transport solution before radioactive transport solution is added, which consists of 0.25 μCi/well of 3[H]-2-deoxy-glucose and 0.025 mM 2-deoxy-glucose. After a 10-minute incubation in the radioactive transport solution, it is removed and the, the glucose uptake is halted by addition of ice cold PBS. The cold PBS is removed and each well is washed twice with PBS. Then, lysis buffer consisting of 0.1 M NaOH and 0.1% w/v sodium dodecyl sulfate, is added to each well. The radioactive lysate was transferred to a scintillation vial containing 5 mL of Ultima Gold liquid scintillation fluid and analyzed using a liquid Scintillation counter.
Cells were differentiated for 6 days using the standard adipogenic differentiation protocol described above. Each day on Days 0-3, the cells were washed with PBS and incubated with 200 μL solution of DMEM containing GPs at the indicated concentrations added for 1 hour at 37° C. After this time, the media were removed, the cells were washed with PBS, and fresh differentiation media were added. On Day 6, the adipocytes were subjected to the ^3[H]-2-deoxy-glucose uptake assay and the spent media were analyzed for glucose and lactate content as described above.

Ndst1−/− adipocytes = experiment: 3[H]-2-deoxy-glucose uptake in Ndst1−/− MEF-derived adipocytes; assay type: cell-based, mouse; conditions: for glucose clearance in differentiated adipocytes: Ndst1−/−, Wnt inhibitor treatment during the first 3 days of adipogenesis
Experimental: Cells were seeded on a 24-well plate at a density of 30,000 cells/cm^2. Cells were allowed to grow to confluence for 48 hours. At this point (Day 0), the media were removed, cells were washed with PBS, and differentiation media with or without heparin (100 μg/ml) were added. […] On Day 3 of differentiation, cells were washed with PBS and treated with insulin media, which consisted of 2 μM insulin, and 1 μM rosiglitazone in DMEM with 10% FBS. The cellular cholesterol and triglyceride content was determined after lysing cells in 0.1M NaOH. Total plasma cholesterol and plasma triglyceride levels (Sekisui Diagnostics) and protein levels (BCA protein assay) were determined using commercially available kits. Cells are washed twice with PBS and placed into DMEM with 2 mg/mL BSA for two hours. […] The insulin solution is then removed and the cells are washed twice with transport solution before radioactive transport solution is added, which consists of 0.25 μCi/well of 3[H]-2-deoxy-glucose and 0.025 mM 2-deoxy-glucose. After a 10-minute incubation in the radioactive transport solution, it is removed and the, the glucose uptake is halted by addition of ice cold PBS. The cold PBS is removed and each well is washed twice with PBS. Then, lysis buffer consisting of 0.1 M NaOH and 0.1% w/v sodium dodecyl sulfate, is added to each well. The radioactive lysate was transferred to a scintillation vial containing 5 mL of Ultima Gold liquid scintillation fluid and analyzed using a liquid Scintillation counter. Cells were differentiated for 6 days using the standard adipogenic differentiation protocol described above. Each day on Days 0-3, the cells were washed with PBS and incubated with 200 μL solution of DMEM containing GPs at the indicated concentrations added for 1 hour at 37° C. After this time, the media were removed, the cells were washed with PBS, and fresh differentiation media were added. On Day 6, the adipocytes were subjected to the ^3[H]-2-deoxy-glucose uptake assay and the spent media were analyzed for glucose and lactate content as described above.

WT adipocytes [2] = experiment: [9,10-3H(N)]-Palmitate (FFA) uptake in adipocytes; assay type: cell-based, mouse; conditions: chemical inhibition of HS (heparin 100 μg/ml)
Wnt5a = target: T1, Wnt5a (Homo sapiens, UniProt P41221); experiment: Wnt binding to HS-mimetics via ELISA (Wnt5a); conditions: immobilized Wnt5a, biotinylated glycopolymer or heparin
T1 sequence (P41221 62-380): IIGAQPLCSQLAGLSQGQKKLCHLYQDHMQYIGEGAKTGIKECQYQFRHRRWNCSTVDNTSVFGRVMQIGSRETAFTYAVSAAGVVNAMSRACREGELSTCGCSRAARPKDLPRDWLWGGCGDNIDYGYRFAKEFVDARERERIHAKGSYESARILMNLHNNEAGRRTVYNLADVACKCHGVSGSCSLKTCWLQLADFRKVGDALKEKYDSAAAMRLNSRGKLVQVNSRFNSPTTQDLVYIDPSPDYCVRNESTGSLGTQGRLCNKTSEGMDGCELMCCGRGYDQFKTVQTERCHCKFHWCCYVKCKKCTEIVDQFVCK
Experimental: (§1) Wnt5a and Wnt10b proteins (10 nM solution in 1% (w/v) BSA/DPBS) were immobilized on 96-well tissue culture treated plates overnight at 4° C. The plates were washed twice with 0.05% (v/v) Tween-20 in DPBS and blocked with 1% (w/v) BSA/DPBS for 6 hours at room temperature. Biotinylated HS-mimetic glycopolymers GP or heparin were added to the wells at increasing concentrations in 1% (w/v) BSA/DPBS. After 1 hour incubation, the wells were washed three times with 0.05% Tween-20 in DPBS. Streptavidin-HRP (1:1000 in 1% BSA/DPBS) was added for 45 min at ambient temperature. The wells were again washed three times in 0.05% Tween-20 in DPBS, followed by treatment with 100 μL of TMB substrate for 2-5 min before quenching with 100 μL of 2N sulfuric acid. Absorbance (450 nm) was measured using a Molecular Devices SpectraMax plate reader.

Wnt10b = Wnt10b (Homo sapiens, UniProt O00744); experiment: Wnt binding to HS-mimetics via ELISA (Wnt10b); conditions: immobilized Wnt10b, biotinylated glycopolymer or heparin
Wnt10b, sequence (O00744 29-389, species assumed): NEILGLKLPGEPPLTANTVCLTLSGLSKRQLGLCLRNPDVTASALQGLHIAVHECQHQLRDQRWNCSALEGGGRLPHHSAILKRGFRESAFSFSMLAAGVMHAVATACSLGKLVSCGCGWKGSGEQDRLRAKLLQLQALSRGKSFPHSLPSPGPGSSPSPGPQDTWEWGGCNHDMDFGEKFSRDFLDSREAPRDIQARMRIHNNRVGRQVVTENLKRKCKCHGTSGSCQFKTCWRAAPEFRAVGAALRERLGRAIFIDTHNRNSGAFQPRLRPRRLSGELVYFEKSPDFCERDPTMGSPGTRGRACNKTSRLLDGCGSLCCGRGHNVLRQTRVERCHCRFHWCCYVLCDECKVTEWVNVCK
Experimental: as §1

[3] = system: Primary adipocytes derived from murine subcutaneous white adipose tissue (sWAT) stromal vascular cells; experiment: Glucose uptake in primary adipocytes from sWAT stromal vascular cells; assay type: cell-based; conditions: co-incubated with heparin during adipogenesis
Experimental: Around 1 g subcutaneous WAT from 8- to 14-week-old, male or female mice was dissected, washed, minced, and digested in 1 ml DMEM containing 0.25 U/ml collagenase D (Sigma) at 37° C. with constant agitation at 200 rpm for 25-35 min. To stop the digestion, complete DMEM including 10% FBS and 1% P/S was added to the digestion mixture. Then the cells were filtered through a 100 μm cell strainer. After centrifugation at 200×g for 10 min, the floating adipocyte fraction (AF) was collected for protein isolation, while the pellet containing stromal vascular fraction (SVF) was resuspended in fresh complete medium and seeded on a 10-cm cell culture dish. At a confluency of ˜80%, cells were seeded on 6- and 12-well plates and grown to confluency for differentiation. Differentiation was induced by using complete DMEM/F12 media supplemented with 1 μM dexamethasone, 0.5 mM isobutylmethylxanthine (IBMX), 5 μg/ml insulin, and 1 μM rosiglitazone. Three days after induction, medium was changed to complete DMEM/F12 supplemented with 5 μg/ml insulin for two days, afterwards cells were maintained in complete DMEM/F12 medium. […]
Cells are washed twice with PBS and placed into DMEM with 2 mg/mL BSA for two hours. […] The radioactive lysate was transferred to a scintillation vial containing 5 mL of Ultima Gold liquid scintillation fluid and analyzed using a liquid Scintillation counter.

lipoprotein lipase (LPL) = target: T2, lipoprotein lipase (LPL) (Bos taurus, UniProt P11151); experiment: Lipoprotein lipase (LPL) binding to adipocytes; assay type: cell-based, Bovine; conditions: exogenous heparin 100 μg/ml
T2 construct: gift of Gunilla Olivecrona, Umea University
T2 sequence (P11151 29-478): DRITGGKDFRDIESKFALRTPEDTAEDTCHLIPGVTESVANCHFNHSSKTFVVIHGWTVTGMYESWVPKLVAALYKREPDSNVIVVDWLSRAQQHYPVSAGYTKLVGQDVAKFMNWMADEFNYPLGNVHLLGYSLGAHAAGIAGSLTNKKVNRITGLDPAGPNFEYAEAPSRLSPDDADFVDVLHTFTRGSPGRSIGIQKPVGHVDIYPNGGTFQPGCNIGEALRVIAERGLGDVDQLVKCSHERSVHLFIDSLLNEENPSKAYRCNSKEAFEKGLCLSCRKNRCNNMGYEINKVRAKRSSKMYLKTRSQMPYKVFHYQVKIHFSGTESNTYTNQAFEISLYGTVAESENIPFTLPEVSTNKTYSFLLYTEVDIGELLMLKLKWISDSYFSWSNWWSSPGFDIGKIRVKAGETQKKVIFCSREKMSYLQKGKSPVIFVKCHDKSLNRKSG
Experimental: Bovine LPL generously provided by Gunilla Olivecrona (Department of Biomedical Sciences, Umea University, Umea Sweden)^42. Enzyme activity was determined using ^3H radiolabeled substrate as previously described^43. Molar ratio of biotin to LPL was determined in a HABA displacement assay (Pierce Biotin Quantitation Kit).
LPL binding assays were performed similar to as previously described. Cells were harvested using Accutase cell detachment solution (Millipore) and washed twice with PBS. Cells were incubated for 15 min at 37° C. in serum free media in the absence or presence of 5 mU/ml each of recombinant heparin lyases 1, 11, and 111. Treated and untreated cells were washed twice with PBS, chilled on ice for 20 min and incubated with 50 nM biotinylated LPL in 1% BSA supplemented PBS at 4° C. for 1 hour. Following the incubation, cells were washed twice in ice-cold PBS and incubated with 0.4 μg/mL Phycoerythrin-Cy5 conjugated Streptavidin in 1% BSA supplemented PBS at 4° C. A set of cells was exposed only to Phycoerythrin-Cy5 conjugated Streptavidin and was used as background control. Cells were washed twice with PBS and analyzed by flow cytometry.

WT adipocytes [4] = experiment: Glucose and lactate in spent media (YSI), adipocytes differentiated with heparin; assay type: cell-based, mouse; conditions: heparin 100 μg/ml during differentiation; spent media day 6
Experimental: Cells were seeded on a 24-well plate at a density of 30,000 cells/cm^2. Cells were allowed to grow to confluence for 48 hours. At this point (Day 0), the media were removed, cells were washed with PBS, and differentiation media with or without heparin (100 μg/ml) were added. Differentiation media consisted of 0.1 μM dexamethasone, 450 μM 3-isobutyl-1-methylxanthine, 2 μM insulin, and 1 μM rosiglitazone in DMEM supplemented with 10% FBS. On Day 3 of differentiation, cells were washed with PBS and treated with insulin media, which consisted of 2 μM insulin, and 1 μM rosiglitazone in DMEM with 10% FBS. The cellular cholesterol and triglyceride content was determined after lysing cells in 0.1M NaOH. Total plasma cholesterol and plasma triglyceride levels (Sekisui Diagnostics) and protein levels (BCA protein assay) were determined using commercially available kits.
MEFs are differentiated to day 6 into adipocytes in a 24 well plate, and on day six (6) 500 μL of media is collected from each well in an Eppendorf tube and immediately frozen in liquid nitrogen. […] Then, the filtrate is analyzed using a YSl 2900, where the sample is loaded into two wells of a 96 well plate, 200 μL media per well. The samples are then analyzed for lactate and glucose concentration.

Compound | toxicity to WT adipocytes (WT adipocytes [1]; 10 nM) | glucose clearance in differentiated adipocytes (WT adipocytes [1]) | glucose clearance in differentiated adipocytes (Ndst1−/− adipocytes) | reduction of glucose uptake (WT adipocytes [1]; WT cells treated with exogenous heparin (100 μg/ml) during differentiation, basal) | differential in glucose uptake versus WT after insulin stimulation (WT adipocytes [1]; WT cells with heparin, insulin stimulated) | glucose uptake at day 6 (WT adipocytes [1]; heparin 100 μg/ml from start, cells treated up to day 3 and beyond) | glucose uptake, acute treatment of mature adipocytes (WT adipocytes [1]; heparin 100 μg/ml simultaneously with 3[H]-2-deoxy-glucose administration, WT and Ndst1−/−) | glucose uptake at day 6 (WT adipocytes [1]; heparin added after day 4 of differentiation) | glucose uptake potential relative to untreated WT adipocytes (WT adipocytes [1]; soluble heparin 100 μg/ml) | FFA uptake (WT adipocytes [2]) | EC50 (Wnt5a) | 3[H]-2-deoxy-glucose uptake (Ndst1−/− adipocytes; Ndst1−/− MEFs treated 1 hour at 37° C. on day 0 to 3, differentiated adipocytes day 6) | effect of exogenous heparin on glucose uptake (Ndst1−/− adipocytes; Ndst1−/− cells treated with exogenous heparin) | EC50 (Wnt10b) | glucose uptake [3] | binding of lipoprotein lipase (LPL) (lipoprotein lipase (LPL)) | glucose levels in the culture medium (WT adipocytes [4]) | lactate production (WT adipocytes [4])
Cc1cc(-c2ccc(CC(=O)Nc3ccc(-c4cccnc4)cc3)cc2)ccn1 [Wnt-C59] | toxic | no effect on cellular glucose clearance | enhanced glucose clearance capacity |  |  |  |  |  |  |  |  |  |  |  |  |  |  | 
Oc1nc(-c2ccc(C(F)(F)F)cc2)nc2c1CSCC2 [XAV-939] |  | enhanced glucose clearance | enhanced glucose clearance |  |  |  |  |  |  |  |  |  |  |  |  |  |  | 
heparin |  |  |  | 45% | −44% | significantly reduced glucose uptake | unaltered glucose uptake | can no longer impact glucose uptake | reduces glucose uptake potential | did not negatively affect FFA uptake | 28.2 nM | had no effect; also recorded: no effect on cellular glucose uptake | did not have an additive effect on glucose uptake | 30.1 nM | reduced glucose uptake | reduced binding | high glucose levels remaining | decreased lactate production
